In patent US11390616B2 (BRISTOL-MYERS SQUIBB COMPANY, priority 2015, dated 2022):

Each compound was assayed against T1, human APJ receptor (Homo sapiens, UniProt P35414) (assay: Intracellular cAMP accumulation assay (APJ hcAMP, HTRF)). Details: HEK293 cells stably expressing human APJ receptor; inhibition of forskolin-mediated cAMP production; read-out: APJ cAMP Potency range.
T1 construct: expressed in transfected cells; host or cells: HEK293
T1 sequence (P35414 1-380): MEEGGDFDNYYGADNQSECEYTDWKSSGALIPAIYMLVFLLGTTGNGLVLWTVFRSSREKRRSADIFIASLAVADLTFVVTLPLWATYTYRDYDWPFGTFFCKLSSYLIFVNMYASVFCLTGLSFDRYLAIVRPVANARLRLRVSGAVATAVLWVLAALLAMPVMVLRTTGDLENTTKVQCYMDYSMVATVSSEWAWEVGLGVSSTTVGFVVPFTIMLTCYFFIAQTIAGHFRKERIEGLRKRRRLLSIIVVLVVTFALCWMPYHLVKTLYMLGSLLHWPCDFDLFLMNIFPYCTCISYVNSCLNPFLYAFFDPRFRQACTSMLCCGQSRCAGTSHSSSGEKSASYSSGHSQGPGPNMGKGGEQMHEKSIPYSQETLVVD
Assay type: cell-based
Procedure, shortened: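 Inhibition of forskolin (2 μM)-driven cAMP, with […], measured by HTRF after 30 min room-temperature compound exposure of stably transfected HEK293 cells. cAMP read from a standard curve; variable-slope fit gives EC50, and maximal inhibition is normalised to (Pyr1)apelin-13 as 100%.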
`CCCCc1nc(=O)c(Cc2ccc(-c3ccnc(F)c3C)cc2)c(O)n1-c1c(CC)cccc1CC` [Example 66, 2-butyl-1-(2,6-diethylphenyl)-5-{[4-(2-fluoro-3-methylpyridin-4-yl)phenyl]methyl}-6-hydroxy-1,4-dihydropyrimidin-4-one] gave an EC50 of 0.01 to 10 nM.
`CCCCc1nc(=O)c(Cc2ccc(-c3ccncc3C)cc2)c(O)n1[C@@H](CC)c1cccc(F)c1` [Example 106, 2-butyl-1-[(1S)-1-(3-fluorophenyl)propyl]-6-hydroxy-5-{[4-(3-methylpyridin-4-yl)phenyl]methyl}-1,4-dihydropyrimidin-4-one] was tested, and the EC50 was 0.01 to 10 nM.
`Cc1ncccc1-c1ccc(Cc2c(O)n([C@H](c3cc(F)cc(F)c3)C(C)C)c(COC(C)C)nc2=O)cc1` [Example 115, 1-[(1S)-1-(3,5-difluorophenyl)-2-methylpropyl]-6-hydroxy-5-{[4-(2-methylpyridin-3-yl)phenyl]methyl}-2-[(propan-2-yloxy)methyl]-1,4-dihydropyrimidin-4-one] showed an EC50 of 0.01 to 10 nM.
In the case of `CCCCc1nc(O)c(Cc2ccc(-c3ccc(OC)cc3)nc2)c(=O)n1-c1c(OC)cccc1OC` [Example 29, 2-butyl-3-(2,6-dimethoxyphenyl)-6-hydroxy-5-{[6-(4-methoxyphenyl)pyridin-3-yl]methyl}-3,4-dihydropyrimidin-4-one], the EC50 is reported as 0.01 to 10 nM.
For `CC[C@@H](c1ccccc1)n1c(-c2nc(C)cs2)nc(=O)c(Cc2ccc(-c3ccc(F)cc3C(N)=O)c(F)c2)c1O` [Example 120, 2′,4-difluoro-4′-{[6-hydroxy-2-(4-methyl-1,3-thiazol-2-yl)-4-oxo-1-[(1S)-1-phenylpropyl]-1,4-dihydropyrimidin-5-yl]methyl}-[1,1′-biphenyl]-2-carboxamide], the EC50 was 0.01 to 10 nM.
For `CCc1cccc(CC)c1-n1c(-c2ccn(CC)n2)nc(=O)c(Cc2ccc(-c3ccnc(F)c3C)c(F)c2)c1O` [Example 77, 1-(2,6-diethylphenyl)-2-(1-ethyl-1H-pyrazol-3-yl)-5-{[3-fluoro-4-(2-fluoro-3-methylpyridin-4-yl)phenyl]methyl}-6-hydroxy-1,4-dihydropyrimidin-4-one], the EC50 was 0.01 to 10 nM.
`CCCCc1nc(O)c(Cc2ccc(N3CCCCC3=O)cc2)c(=O)n1-c1c(OC)cccc1OC` [Example 35, 2-butyl-3-(2,6-dimethoxyphenyl)-6-hydroxy-5-{[4-(2-oxopiperidin-1-yl)phenyl]methyl}-3,4-dihydropyrimidin-4-one] was tested, and the EC50 was 0.01 to 10 nM.
In the case of `CCc1cccc(CC)c1-n1c(-c2csc(C)n2)nc(=O)c(Cc2ccc(-c3ccc(F)nc3C)c(F)c2)c1O` [Example 72, 1-(2,6-diethylphenyl)-5-{[3-fluoro-4-(6-fluoro-2-methylpyridin-3-yl)phenyl]methyl}-6-hydroxy-2-(2-methyl-1,3-thiazol-4-yl)-1,4-dihydropyrimidin-4-one], the EC50 is reported as 0.01 to 10 nM.
